Data as given in patent US8530512B2, “Broad spectrum gram-positive antimicrobials and anthelmintics with efficacy against drug-resistant strains and Mycobacterium species” (priority 2004, dated 2013).
Values after ≈ are worked out from the molar mass of the structure shown. Where two headings read alike, the source gives them in different places.

Legend:
[1] = test system: several strains of bacteria; test: Kirby-Bauer disc diffusion assay; format: cell-based; details: bioassay-directed fractionation
Description: The crude extract was then fractionated by flash column chromatography, using a 42 mm ID column, silica gel 60 as the stationary phase, and CH2Cl2 as the eluting solvent. Typically, 100-150, 10 mL fractions were collected and assayed for microbial growth inhibition. […] The column fractions, including the active component, were also analyzed by thin-layer chromatography (TLC) using Baker-flex® silica gel IB2-F plates (with fluorescent indicator) and CH2Cl2 as the eluting solvent (see FIG. 1).

[2] = test system: Enterococcus faecium VRE 1; test: microbe, parasite or virus in culture; format: cell-based; details: for MIC: Enterococcus faecium, VRE
Bacillus megaterium = test: microbe, parasite or virus in culture; format: cell-based; details: Priestia megaterium
Listeria monocytogenes = test: microbe, parasite or virus in culture; format: cell-based
Escherichia coli = test: microbe, parasite or virus in culture; format: cell-based
C. elegans L1 larvae = test: developmental assay; format: in vivo; design: key to Developmental score, 1/1600 / Developmental score, 1/800 / Developmental score, 1/400 / Developmental score, 1/200 / Developmental score, 1/100: dead (+++); distressed (++); slightly delayed (+); the same as M9-only untreated wells (−); details: after four days, Ive 1 ng/μL in each well
[3] = test system: vancomycin-resistant enterococci; test: organism not typed; format: cell-based
[4] = test system: Staphylococcus aureus ATCC 29213; test: microbe, parasite or virus in culture; format: cell-based; details: ATCC29213
[5] = test system: Gram-positive bacteria tested; test: organism not typed; format: cell-based
Pseudomonas aeruginosa = test: microbe, parasite or virus in culture; format: cell-based
[6] = test system: Enterococcus faecium VRE 14; test: microbe, parasite or virus in culture; format: cell-based
Corynebacterium xerosis = test: microbe, parasite or virus in culture; format: cell-based
Bacillus subtilis = test: microbe, parasite or virus in culture; format: cell-based
Bacillus anthracis = test: microbe, parasite or virus in culture; format: cell-based
Bacillus cereus = test: microbe, parasite or virus in culture; format: cell-based; details: for MIC: Bacillus cereus
[7] = test system: Corynebacterium pseudodiphthericum; test: microbe, parasite or virus in culture; format: cell-based; details: Corynebacterium pseudodiphtheriticum
[8] = test system: Staphylococcus aureus MRSA MC-4; test: microbe, parasite or virus in culture; format: cell-based
C. elegans = test: motility assay; format: in vivo; design: key to Movement score, 1/1600 / Movement score, 1/800 / Movement score, 1/400 / Movement score, 1/200 / Movement score, 1/100: normal (−); slow (+); very slow (++); not motile/paralyzed (+++); details: Ive 1 ng/μL in all wells; for Movement score, 1/100: dilution 1/100 of stock (10.24 μg/μL; SK-03-92 1.024 μg/μL); for Movement score, 1/200: dilution 1/200 of stock (10.24 μg/μL; SK-03-92 1.024 μg/μL); for Movement score, 1/400: dilution 1/400 of stock (10.24 μg/μL; SK-03-92 1.024 μg/μL); for Movement score, 1/800: dilution 1/800 of stock (10.24 μg/μL; SK-03-92 1.024 μg/μL); for Movement score, 1/1600: dilution 1/1600 of stock (10.24 μg/μL; SK-03-92 1.024 μg/μL), overnight 20° C.
[9] = test system: Streptococcus pneumoniae ATCC 49619; test: microbe, parasite or virus in culture; format: cell-based; details: ATCC49619
M. smegmatis = test: MIC assay; format: cell-based; details: Mycolicibacterium smegmatis; Table 6; read-out: MIC M. smegmatis
Mycobacterium bovis BCG = test: microbe, parasite or virus in culture; format: cell-based; details: Mycobacterium tuberculosis variant bovis BCG
Streptococcus pyogenes = test: microbe, parasite or virus in culture; format: cell-based
Mycobacterium chelonae = test: MIC assay; format: cell-based
[10] = test system: Staphylococcus aureus ATCC 25923; test: microbe, parasite or virus in culture; format: cell-based; details: ATCC25923
[11] = test system: Corynebacterium diphtheriae Tox−; test: microbe, parasite or virus in culture; format: cell-based
[12] = test system: Enterococcus faecalis ATCC 29212; test: microbe, parasite or virus in culture; format: cell-based; details: ATCC29212
[13] = test system: Staphylococcus aureus MRSA MC-1; test: microbe, parasite or virus in culture; format: cell-based; details: Staphylococcus aureus, MRSA
[14] = test system: methicillin-resistant Staphylococcus aureus; test: microbe, parasite or virus in culture; format: cell-based
Mycobacterium fortuitum = test: MIC assay; format: cell-based; details: Mycolicibacterium fortuitum
Streptococcus agalactiae = test: microbe, parasite or virus in culture; format: cell-based
[15] = test system: Gram-negative bacteria tested; test: organism not typed; format: cell-based; details: read-out: MICs
Streptococcus mitis = test: microbe, parasite or virus in culture; format: cell-based
[16] = test system: Staphylococcus aureus MW 2; test: MIC assay; format: cell-based; details: MW2, Table 4
[17] = test system: Mycobacterium intracellulare; test: MIC assay; format: cell-based; details: Mycobacterium intracellulare
Mycobacterium avium = test: MIC assay; format: cell-based; details: Mycobacterium avium
Streptococcus bovis = test: MIC assay; format: cell-based; details: Streptococcus equinus, Table 4
M. kansasii = test: MIC assay; format: cell-based; details: Mycobacterium kansasii
[18] = test system: community-associated methicillin-resistant S. aureus (CA-MRSA) strains; test: MIC screening against CA-MRSA strains; format: cell-based
[19] = test system: S. aureus strains tested, including MRSA; test: MIC assay
Clostridium difficile = test: MIC assay; format: cell-based; details: Clostridioides difficile, Table 4
S. aureus MW2 = test: murine thigh abscess model of infection; details: for CFU/thigh reduced: single intraperitoneal injection
Clostridium tertium = test: MIC assay; format: cell-based; details: Table 4
[20] = test system: methicillin-sensitive S. aureus (MSSA) strains; test: MIC screening against MSSA strains; format: cell-based; details: Table 5, 39 tested
[21] = test system: Gram-positive bacterial species tested; test: Minimal Bacterial Concentration Testing (MBC); format: cell-based
Description: Following the MIC, the last three wells showing no bacterial growth were diluted and plated onto BHI agar to do MBC testing.

Streptococcus pneumoniae = test: MIC assay; format: cell-based; details: Table 4; Streptococcus pneumoniae (source UWL)
[22] = test system: Peptostreptococcus anaerobius; test: MIC assay; format: cell-based; details: Table 4
[23] = test system: Enterococcus sp., including VRE strains; test: MIC assay; details: read-out: MICs
Clostridium novyi A = test: MIC assay; format: cell-based; details: Table 4
[24] = Safety Testing with Swiss Webster Mice; format: in vivo
[25] = test system: Erysipelothrix rhusiopathiae; test: MIC assay; format: cell-based; details: Table 4
Propionibacterium acnes = test: MIC assay; format: cell-based; details: Cutibacterium acnes, Table 4
[26] = Staphylococcus aureus, Table 6, read-out: MIC S. aureus ATCC 29213
[27] = Table 6, read-out: MIC M. chelonae
[28] = Table 6, read-out: MIC M. fortuitum

COc1cc(O)cc(/C=C/c2ccccc2)c1 [CL-3, 3-hydroxy-5-methoxystilbene]
growth inhibition [1]: inhibited the growth
MIC [2]: 16 mg/L (≈ 70.7 µM)
MIC E. faecium VRE 1, G+ ([2]; Table 3): 32 mg/L (≈ 141 µM)
MIC (Bacillus megaterium): 64 mg/L (≈ 283 µM)
MIC (Listeria monocytogenes): 32 mg/L (≈ 141 µM)
MIC (Escherichia coli): > 128 mg/L
Developmental score, 1/100 (C. elegans L1 larvae; dilution 1/100): +++
Developmental score, 1/200 (C. elegans L1 larvae; dilution 1/200): +
Developmental score, 1/400 (C. elegans L1 larvae; dilution 1/400): −
Developmental score, 1/800 (C. elegans L1 larvae; dilution 1/800): −
Developmental score, 1/1600 (C. elegans L1 larvae; dilution 1/1600): −
MIC [3]: 32 mg/L (≈ 141 µM)
MIC ([4]; Staphylococcus aureus): 32 mg/L (≈ 141 µM)
MIC [4, 26]: 16 mg/L (≈ 70.7 µM)
growth inhibition of Gram-positive bacteria [5]: inhibit the growth of all Gram-positive bacteria tested
MIC (Pseudomonas aeruginosa): > 128 mg/L
MIC [6]: 16 mg/L (≈ 70.7 µM)
MIC (Corynebacterium xerosis): 16 mg/L (≈ 70.7 µM)
MIC (Bacillus subtilis): 16 mg/L (≈ 70.7 µM)
MIC (Bacillus anthracis): 4 mg/L (≈ 17.7 µM)
MIC (Bacillus cereus): 16 mg/L (≈ 70.7 µM)
MIC B. cereus, G+ (anthrax surrogate) (Bacillus cereus; Table 3): 16 mg/L (≈ 70.7 µM)
MIC [7]: 16 mg/L (≈ 70.7 µM)
MIC [8]: 32 mg/L (≈ 141 µM)
Movement score, 1/100 (C. elegans): +++
Movement score, 1/200 (C. elegans): +++
Movement score, 1/400 (C. elegans): +
Movement score, 1/800 (C. elegans): −
Movement score, 1/1600 (C. elegans): −
MIC [9]: 8 mg/L (≈ 35.4 µM)
MIC (M. smegmatis): 64 mg/L (≈ 283 µM)
MIC (Mycobacterium bovis BCG; M bovis BCG, Example 3): 25.6 mg/L (≈ 113 µM)
MIC (Mycobacterium bovis BCG; Table 2, Mycobacterium bovis BCG): 26 mg/L (≈ 115 µM)
MIC (Streptococcus pyogenes; Streptococcus pyogenes): 16 mg/L (≈ 70.7 µM)
MIC S. pyogenes, G+ (Streptococcus pyogenes; Table 3): 16 mg/L (≈ 70.7 µM)
MIC (Mycobacterium chelonae; [27]): 16 mg/L (≈ 70.7 µM)
MIC [10]: 32 mg/L (≈ 141 µM)
MIC [11]: 32 mg/L (≈ 141 µM)
MIC ([12]; Enterococcus faecalis): 16 mg/L (≈ 70.7 µM)
MIC [13]: 32 mg/L (≈ 141 µM)
MIC ([13]; read-out: MIC S. aureus MC-1): 16 mg/L (≈ 70.7 µM)
MIC [14]: 32 mg/L (≈ 141 µM)
MIC (Mycobacterium fortuitum; [28]): 16 mg/L (≈ 70.7 µM)
MIC (Streptococcus agalactiae): 32 mg/L (≈ 141 µM)
MIC [15]: > 128 mg/L
MIC (Streptococcus mitis): 64 mg/L (≈ 283 µM)

COc1cc(O)cc(/C=C/c2cc3ccccc3s2)c1 [SK-03-92, (E)-3-(2-(benzo[b]thiophen-2-yl)vinyl)-5-methoxyphenol]
MIC [16]: 2 mg/L (≈ 7.08 µM)
MIC [2]: 2 mg/L (≈ 7.08 µM)
MIC ([17]; Table 6, read-out: MIC M. intracellulare): 32 mg/L (≈ 113 µM)
MIC ([17]; Table 4, read-out: MIC): 32 mg/L (≈ 113 µM)
MIC (Listeria monocytogenes; Table 4, read-out: MIC): 2 mg/L (≈ 7.08 µM)
MIC ([3]; Enterococcus, VRE, read-out: MICs): 2 mg/L (≈ 7.08 µM)
MIC (Mycobacterium avium; Table 6, read-out: MIC M. avium): 16 mg/L (≈ 56.7 µM)
MIC (Mycobacterium avium; Table 4, read-out: MIC): 16 mg/L (≈ 56.7 µM)
MIC ([4]; Table 4, Staphylococcus aureus ATCC 29213, read-out: MIC): 2 mg/L (≈ 7.08 µM)
MIC [4, 26]: 4 mg/L (≈ 14.2 µM)
killing of Gram-positive bacterial species ([5]; all of the Gram-positive bacterial species tested): killed
MIC ([5]; variety of other Gram-positive species): 1 to 8 mg/L (≈ 3.54 to 28.3 µM)
MIC [6]: 2 mg/L (≈ 7.08 µM)
MIC (Corynebacterium xerosis; Table 4, read-out: MIC): 2 mg/L (≈ 7.08 µM)
MIC (Bacillus cereus; Table 4, read-out: MIC): 1 mg/L (≈ 3.54 µM)
MIC ([7]; Table 4, Corynebacterium pseudodiphthericum, read-out: MIC): 2 mg/L (≈ 7.08 µM)
MIC (Streptococcus bovis): 2 mg/L (≈ 7.08 µM)
MIC (M. kansasii; Table 4, Mycobacterium kamasii, read-out: MIC): 16 mg/L (≈ 56.7 µM)
MIC (M. kansasii; Table 6, read-out: MIC M. kansasii): 16 mg/L (≈ 56.7 µM)
Movement score, 1/100 (C. elegans): +
Movement score, 1/200 (C. elegans): −
Movement score, 1/400 (C. elegans): −
Movement score, 1/800 (C. elegans): −
Movement score, 1/1600 (C. elegans): −
MIC (M. smegmatis): 32 mg/L (≈ 113 µM)
MIC ([18]; Staphylococcus aureus, many MRSA strains): 2 to 4 mg/L (≈ 7.08 to 14.2 µM)
MIC range ([18]; Table 5, CA-MRSA, 43 tested): 2 to 4 mg/L
MIC ([19]; Staphylococcus aureus, MRSA, read-out: MICs): 2 to 4 mg/L (≈ 7.08 to 14.2 µM)
relative activity against S. aureus ([19]; comparison among analogs of Table 6): best activity
MIC (Mycobacterium bovis BCG; Table 4, Mycobacterium bovis BCG): 25 mg/L (≈ 88.5 µM)
MIC (Mycobacterium chelonae; Table 4, Mycobacterium chelonae, read-out: MIC): 32 mg/L (≈ 113 µM)
MIC (Mycobacterium chelonae; [27]): 32 mg/L (≈ 113 µM)
MIC (Clostridium difficile): 2 mg/L (≈ 7.08 µM)
CFU/thigh reduced (S. aureus MW2; high dose, preliminary): 3 logs
CFU/thigh reduced (S. aureus MW2; low dose, preliminary): 2.5 logs
in vivo efficacy (S. aureus MW2; thigh abscess model): in vivo efficacy
drop in the bacterial counts (S. aureus MW2; two days after drug injection, preliminary): 2-3 log
MIC (Clostridium tertium): 1 mg/L (≈ 3.54 µM)
MIC ([12]; Table 4, Enterococcus faecalis ATCC 29212, read-out: MIC): 4 mg/L (≈ 14.2 µM)
MIC range [20]: 1 to 2 mg/L
MBC analysis [21]: bactericidal
MIC ([13]; read-out: MIC S. aureus MC-1): 2 mg/L (≈ 7.08 µM)
MIC (Streptococcus pneumoniae): 16 mg/L (≈ 56.7 µM)
MIC [22]: 1 mg/L (≈ 3.54 µM)
MIC (Mycobacterium fortuitum; Table 4, Mycobacterium fortuitum, read-out: MIC): 16 mg/L (≈ 56.7 µM)
MIC (Mycobacterium fortuitum; [28]): 16 mg/L (≈ 56.7 µM)
MIC [23]: 2 to 4 mg/L (≈ 7.08 to 14.2 µM)
MIC (Clostridium novyi A): 2 mg/L (≈ 7.08 µM)
MIC (Streptococcus agalactiae; Table 4, read-out: MIC): 2 mg/L (≈ 7.08 µM)
MIC (Streptococcus mitis; Table 4, read-out: MIC): 2 mg/L (≈ 7.08 µM)
harm to mice ([24]; intraperitoneal injections up to 3 g/kg, preliminary): did not appear to harm the mice
harm to mice ([24]; ~2 g/kg dose intraperitoneally and after a repeated dose): did not harm mice
MIC [25]: 8 mg/L (≈ 28.3 µM)
MIC (Propionibacterium acnes): 2 mg/L (≈ 7.08 µM)
